pIC50: −log10 of the molar value. Where two headings read alike, the source gives them in different places.
Columns and labels:
PDK1 = molecular target: T1, PDK1 (Homo sapiens, UniProt O15530); assay: Test for the inhibition of PDK1 (flashplate, 33P-ATP); format: biochemical; conditions: His6-PDK1 3.4 nM, 4 μM ATP, 30° C., 60 min
T1 construct: His6 (N)
T1 sequence (O15530 51-556 limits assumed): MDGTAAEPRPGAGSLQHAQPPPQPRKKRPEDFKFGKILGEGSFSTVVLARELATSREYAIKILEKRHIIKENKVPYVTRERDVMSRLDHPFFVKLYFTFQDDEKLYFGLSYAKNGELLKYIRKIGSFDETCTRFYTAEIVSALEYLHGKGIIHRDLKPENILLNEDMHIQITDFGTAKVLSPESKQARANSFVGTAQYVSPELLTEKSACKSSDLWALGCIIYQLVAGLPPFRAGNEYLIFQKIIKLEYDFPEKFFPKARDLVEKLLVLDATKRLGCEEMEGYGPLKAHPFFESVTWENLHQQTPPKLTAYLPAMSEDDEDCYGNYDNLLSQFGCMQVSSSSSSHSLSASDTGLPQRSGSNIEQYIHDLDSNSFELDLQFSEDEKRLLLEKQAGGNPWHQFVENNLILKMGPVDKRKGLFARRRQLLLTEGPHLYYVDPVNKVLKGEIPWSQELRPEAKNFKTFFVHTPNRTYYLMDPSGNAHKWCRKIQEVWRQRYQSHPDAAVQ
How it was run: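 His6-PDK1(1-50) (3.4 nM) and a biotinylated peptide substrate (400 nM) were incubated 60 min at 30° C with 4 μM ATP containing ^33P-ATP and test compound. Incorporated radioactivity was counted after subtracting a 100 nM staurosporine blank and expressed as % of control; IC50 derived from these.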

[1] = system: PDK1 kinase activity (phospho-T308-PKB) in PC3 cells; assay: Cellular testing of PDK1 kinase inhibitors in PC3 cells (Luminex, phospho-T308-PKB); format: cell-based; conditions: 30 min incubation, serum-free, read-out: IC50 PC3 cells [P-PKB T308]
Protocol: Method for the Cellular Testing of PDK1 Kinase Inhibitors in PC3 Cells.
The cellular assay for the determination of the PDK1 kinase activity is carried out as a Luminex assay in the 96-well format. PC3 cells are shown at 20,000 cells per well in 100 μl of medium (45% of […]/45% of Ham's F12/10% of FCS) and incubated on the following day for 30 min with a serial dilution of the test substance (7 concentrations) under serum-free conditions. The cells are subsequently lysed using 90 μl of lysis buffer (20 mM tris/HCl pH 8.0, 150 mM NaCl, 1% of NP40, 10% of glycerol, 1% of phosphatase inhibitor I, 1% of phosphatase inhibitor II, 0.1% of protease inhibitor cocktail III, 0.01% of benzonase) per well, and the lysates are separated off from insoluble cell constituents by means of centrifugation through a 96-well filter plate (0.65 μm). The lysates are incubated overnight at 4° C. with shaking with Luminex beads to which an anti-total PKB antibody is coupled. The detection is carried out on the following day by addition of a phospho-T308-PKB antibody and a species-specific peroxidase-labelled secondary antibody. The detection of phospho-T308-PKB is carried out by measurement in a Luminex100 instrument by determination of 100 events per cavity in a measurement time of 60 sec. As pharmacological blank, the signals obtained from cells which have been treated with 10 μM staurosporin are subtracted from all other batches. The control value used for maximum phosphorylation of PKB on T308 are the signals from cells which have only been treated with the solvent (0.3% of DMSO). The values of the batches treated with test substance are calculated therefrom as percentage of control, and IC50 values are determined by means of RS1.

Compound | pIC50 (PDK1) | pIC50 ([1]; Homo sapiens, PC-3, 0.5 h) | pIC50 [1]
CC(C)[C@](O)(c1ccccc1)c1cc(-c2c[nH]c3ncc(-c4cnn(C)c4)cc23)nc(N)n1 (single isomer, unassigned) [A128] | 6.59 | 6.33 | –
Cn1cc(-c2cnc3[nH]cc(-c4cc(C(C)(O)c5ccncc5)nc(N)n4)c3c2)cn1 (single isomer, unassigned) [A42, 1-{2-amino-6-[5-(1-methyl-1H-pyrazol-4-yl)-1H-pyrrolo[2,3-b]pyridin-3-yl]-pyrimidin-4-yl}-1-pyridin-4-ylethanol] | 8.49 | – | 6.02
Cn1cc(-c2cnc3[nH]cc(-c4cc([C@](O)(c5ccccc5)C(F)(F)F)nc(N)n4)c3c2)cn1 (single isomer, unassigned) [A124] | 6.77 | 7.32 | –
CCC(O)(c1ccncc1)c1cc(-c2c[nH]c3ncc(-c4cnn(CC(=O)N5CCCCC5)c4)cc23)nc(N)n1 (stereo not drawn) [A50, 2-(4-{3-[2-amino-6-(1-hydroxy-1-pyridin-4-ylpropyl)pyrimidin-4-yl]-1H-pyrrolo[2,3-b]pyridin-5-yl}pyrazol-1-yl)-1-piperidin-1-ylethanone] | 8.40 | 6.28 | –
CCCC(O)(c1ccncc1)c1cc(-c2c[nH]c3ncc(-c4cnn(C)c4)cc23)nc(N)n1 (stereo not drawn) [A35, 1-{2-amino-6-[5-(1-methyl-1H-pyrazol-4-yl)-1H-pyrrolo[2,3-b]pyridin-3-yl]-pyrimidin-4-yl}-1-pyridin-4-ylbutan-1-ol] | 8.52 | 6.68 | –
CC[C@](O)(c1ccncc1)c1cc(-c2c[nH]c3ncc(-c4cnn(CC(=O)N5CCCCC5)c4)cc23)nc(N)n1 (single isomer, unassigned) [A45] | 8.10 | 6.46 | –
Cn1cc(-c2cnc3[nH]cc(-c4cc(C(C)(O)c5ccccc5F)nc(N)n4)c3c2)cn1 (single isomer, unassigned) [A103, 1-{2-amino-6-[5-(1-methyl-1H-pyrazol-4-yl)-1H-pyrrolo[2,3-b]pyridin-3-yl]-pyrimidin-4-yl}-1-(2-fluorophenyl)ethanol] | 8.00 | 7.21 | –
Cn1cc(-c2cnc3[nH]cc(-c4cc(C(C)(O)c5ccncn5)nc(N)n4)c3c2)cn1 (stereo not drawn) [A113, 1-{2-amino-6-[5-(1-methyl-1H-pyrazol-4-yl)-1H-pyrrolo[2,3-b]pyridin-3-yl]-pyrimidin-4-yl}-1-pyrimidin-4-ylethanol] | 7.51 | 5.14 | –
CC(C)C(O)(c1cccc(F)c1)c1cc(-c2c[nH]c3ncc(-c4cnn(C)c4)cc23)nc(N)n1 (stereo not drawn) [A115, 1-{2-amino-6-[5-(1-methyl-1H-pyrazol-4-yl)-1H-pyrrolo[2,3-b]pyridin-3-yl]-pyrimidin-4-yl}-1-(3-fluorophenyl)-2-methylpropan-1-ol] | 7.25 | 6.96 | –
CC[C@](O)(c1ccc(F)cc1)c1cc(-c2c[nH]c3ncc(-c4cnn(C)c4)cc23)nc(N)n1 (single isomer, unassigned) [A122] | 7.15 | 7.74 | –
Cn1cc(-c2cnc3[nH]cc(-c4cc([C@](C)(O)c5cccc(Cl)c5F)nc(N)n4)c3c2)cn1 (single isomer, unassigned) [A138] | 7.41 | 5.05 | –
CCCC(O)(c1cccc(F)c1)c1cc(-c2c[nH]c3ncc(-c4cnn(C)c4)cc23)nc(N)n1 (stereo not drawn) [A116, 1-{2-amino-6-[5-(1-methyl-1H-pyrazol-4-yl)-1H-pyrrolo[2,3-b]pyridin-3-yl]-pyrimidin-4-yl}-1-(3-fluorophenyl)butan-1-ol] | 7.36 | 6.55 | –
COCO[C@](C)(c1ccncc1)c1cc(-c2c[nH]c3ncc(Br)cc23)nc(N)n1 (single isomer, unassigned) [A139] | 6.68 | 5.15 | –
CCC(O)(c1ccncc1)c1cc(-c2c[nH]c3ncc(-c4cn[nH]c4)cc23)nc(N)n1 (stereo not drawn) [A53, 1-{2-amino-6-[5-(1H-pyrazol-4-yl)-1H-pyrrolo[2,3-b]pyridin-3-yl]pyrimidin-4-yl}-1-pyridin-4-ylpropan-1-ol] | 8.72 | 6.16 | –
CC[C@@](O)(c1ccccc1)c1cc(-c2c[nH]c3ncc(-c4cnn(CC(=O)N5CCCCC5)c4)cc23)nc(N)n1 (single isomer, unassigned) [A136] | 6.68 | 6.06 | –
CC(O)(c1cccc(F)c1)c1cc(-c2c[nH]c3ncc(-c4cnn(C(C)(C)C)c4)cc23)nc(N)n1 (stereo not drawn) [A120, 1-{2-amino-6-[5-(1-tert-butyl-1H-pyrazol-4-yl)-1H-pyrrolo[2,3-b]pyridin-3-yl]-pyrimidin-4-yl}-1-(3-fluorophenyl)ethanol] | 6.60 | 5.96 | –
Cn1cc(-c2cnc3[nH]cc(-c4cc(C(C)(O)c5cccc(F)c5)nc(N)n4)c3c2)cn1 (stereo not drawn) [A105, 1-{2-amino-6-[5-(1-methyl-1H-pyrazol-4-yl)-1H-pyrrolo[2,3-b]pyridin-3-yl]-pyrimidin-4-yl}-1-(3-fluorophenyl)ethanol] | 7.89 | 6.96 | –
Cn1cc(-c2cnc3[nH]cc(-c4cc(C(O)(c5ccccc5)C(F)(F)F)nc(N)n4)c3c2)cn1 (stereo not drawn) [A69, 1-{2-amino-6-[5-(1-methyl-1H-pyrazol-4-yl)-1H-pyrrolo[2,3-b]pyridin-3-yl]-pyrimidin-4-yl}-2,2,2-trifluoro-1-phenylethanol] | 6.82 | 6.62 | –
CC(O)(c1ccccc1)c1cc(-c2c[nH]c3ncc(-c4cnn(C5CCNCC5)c4)cc23)nc(N)n1 (stereo not drawn) [A13, 1-{2-amino-6-[5-(1-piperidin-4-yl-1H-pyrazol-4-yl)-1H-pyrrolo[2,3-b]pyridin-3-yl]pyrimidin-4-yl}-1-phenylethanol] | 6.28 | 5.92 | –
CC[C@](O)(c1cc(-c2c[nH]c3ncc(-c4cnn(C)c4)cc23)nc(N)n1)c1cccc(F)c1F (single isomer, unassigned) [A125] | 8.10 | 7.85 | –
CCC(O)(c1cc[n+]([O-])cc1)c1cc(-c2c[nH]c3ncc(-c4cnn(C)c4)cc23)nc(N)n1 (stereo not drawn) [A110, 1-{2-amino-6-[5-(1-methyl-1H-pyrazol-4-yl)-1H-pyrrolo[2,3-b]pyridin-3-yl]-pyrimidin-4-yl}-1-(1-oxypyridin-4-yl)propan-1-ol] | 8.27 | 5.09 | –
